Experiment: method code SF-AS, from Yamada, T.; Tsukamoto, Y.; Shimamura, H.; Banno, S.; Sato, M. (1983). Pyridazinones 4. synthesis anti secretory and anti ulcer activities of urea derivatives. Eur J Med Chem, 18(3)209-214.
Compound `CNC(=O)NCCCn1nc(-c2ccccc2)ccc1=O` has a logP of 1.16.
`CCN(CC)C(=O)NCCCCCCn1nc(-c2ccccc2)ccc1=O` gave a logP of 1.85.
For `CCN(CC)C(=O)NCCCCn1nc(-c2ccccc2)ccc1=O`, the logP was 1.89.
For `CN(C)C(=O)NCCCCCn1nc(-c2ccccc2)ccc1=O`, the logP was 1.74.
Compound `CCNC(=O)NCCCCCCn1nc(-c2ccccc2)ccc1=O` has a logP of 1.81.
`O=C(NCCCCCn1nc(-c2ccccc2)ccc1=O)NC1CCCCC1` gave a logP of 2.03.
`CNC(=O)NCCn1nc(-c2ccccc2)ccc1=O` showed a logP of 0.39.
In the case of `Cc1ccc(S(=O)(=O)NC(=O)NCCCCn2nc(-c3ccccc3)ccc2=O)cc1`, the logP is reported as 1.77.
`NC(=O)NCCCCn1nc(-c2ccccc2)ccc1=O` gave a logP of 1.21.
`O=C(NCCCCn1nc(-c2ccccc2)ccc1=O)Nc1ccccc1` gave a logP of 2.32.
With `CCNC(=O)NCCCCCn1nc(-c2ccccc2)ccc1=O` the logP was 1.76.
`CC(C)(C)NC(=O)NCCCCn1nc(-c2ccccc2)ccc1=O` showed a logP of 2.07.
For `CCN(CC)C(=O)NCCCn1nc(-c2ccccc2)ccc1=O`, the logP was 1.72.
Work on `CNC(=O)NCCCCCCCCn1nc(-c2ccccc2)ccc1=O` yielded a logP of 0.84.
For `CCNC(=O)NCCCn1nc(-c2ccccc2)ccc1=O`, the logP was 1.68.
Work on `NC(=O)NCCn1nc(-c2ccccc2)ccc1=O` yielded a logP of 0.52.
`CN(C)C(=O)NCCCn1nc(-c2ccccc2)ccc1=O` gave a logP of 1.61.
`CCCCNC(=O)NCCCCn1nc(-c2ccccc2)ccc1=O` showed a logP of 2.2.
Work on `O=C(NCCCCn1nc(-c2ccccc2)ccc1=O)NC1CCCCC1` yielded a logP of 1.99.
Work on `NC(=O)NCCCn1nc(-c2ccccc2)ccc1=O` yielded a logP of 0.69.
With `CC(C)NC(=O)NCCCCn1nc(-c2ccccc2)ccc1=O` the logP was 1.91.
Compound `NC(=O)NCCCCCCn1nc(-c2ccccc2)ccc1=O` has a logP of 1.82.
`CCNC(=O)NCCCCn1nc(-c2ccccc2)ccc1=O` showed a logP of 1.83.
`CNC(=O)NCCCCn1nc(-c2ccccc2)ccc1=O` gave a logP of 1.23.
`CN(C)C(=O)NCCCCn1nc(-c2ccccc2)ccc1=O` showed a logP of 1.58.
Compound `CNC(=O)NCCCCCCn1nc(-c2ccccc2)ccc1=O` has a logP of 1.31.
With `CNC(=O)NCCCCCCCn1nc(-c2ccccc2)ccc1=O` the logP was 1.06.
Compound `CCCNC(=O)NCCCCn1nc(-c2ccccc2)ccc1=O` has a logP of 1.71.
With `CNC(=O)NCCCCCn1nc(-c2ccccc2)ccc1=O` the logP was 1.26.
For `CN(C)C(=O)NCCCCCCn1nc(-c2ccccc2)ccc1=O`, the logP was 1.45.
With `NC(=O)NCCCCCn1nc(-c2ccccc2)ccc1=O` the logP was 1.08.
